The values that follow come from article PMC5701173, “An activity-dependent proximity ligation platform for spatially resolved quantification of active enzymes in single cells” (Nature Communications, 2017).

The experiment addresses T1, Neutral cholesterol ester hydrolase 1 (NCEH1) (Homo sapiens, UniProt Q6PIU2).
T1 construct: endogenous full-length enzyme in live PC3 cells
T1 sequence (Q6PIU2 1-408): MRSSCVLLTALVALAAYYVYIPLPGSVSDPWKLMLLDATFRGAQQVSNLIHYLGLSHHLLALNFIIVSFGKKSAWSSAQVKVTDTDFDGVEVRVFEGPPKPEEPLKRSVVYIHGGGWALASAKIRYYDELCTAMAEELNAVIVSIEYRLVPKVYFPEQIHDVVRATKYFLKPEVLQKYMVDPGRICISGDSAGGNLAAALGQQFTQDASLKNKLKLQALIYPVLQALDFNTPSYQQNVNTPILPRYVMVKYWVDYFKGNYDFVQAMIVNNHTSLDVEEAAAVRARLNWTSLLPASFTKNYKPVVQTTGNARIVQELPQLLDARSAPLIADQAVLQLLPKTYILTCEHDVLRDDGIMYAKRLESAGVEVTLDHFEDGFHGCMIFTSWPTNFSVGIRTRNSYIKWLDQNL
The experiment can be described thus: competitive activity-dependent proximity ligation (FP-Bio probe) in live cells; gel-based ABPP in SKOV3. The experiment is classed as cell-based.

In turn, `CC(C)c1ccccc1OC(=O)NCCc1ccc2ccccc2c1` [JW480] had an IC50 of 6 nM.
